Data: PubChem BioAssay (NCI)
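These data come from cells grown in 96-well plates and exposed to compound for 48 hours at five concentrations. TGI denotes the concentration required for complete inhibition of growth.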

Legend:
Test in all cases: inhibition of tumour cell growth, NCI panel, 48 h
786-0 renal = test system: 786-0 renal
A498 renal = test system: A498 renal
A549 NSCLC = test system: A549 NSCLC
ACHN renal = test system: ACHN renal
BT-549 breast = test system: BT-549 breast
CAKI-1 renal = test system: CAKI-1 renal
CCRF-CEM leukemia = test system: CCRF-CEM leukemia
COLO 205 colon = test system: COLO 205 colon
DU-145 prostate = test system: DU-145 prostate
EKVX NSCLC = test system: EKVX NSCLC
HCC-2998 colon = test system: HCC-2998 colon
HCT-116 colon = test system: HCT-116 colon
HCT-15 colon = test system: HCT-15 colon
HL-60(TB) leukemia = test system: HL-60(TB) leukemia
HOP-62 NSCLC = test system: HOP-62 NSCLC
HOP-92 NSCLC = test system: HOP-92 NSCLC
HS 578T breast = test system: HS 578T breast
HT29 colon = test system: HT29 colon
IGROV1 ovarian = test system: IGROV1 ovarian
K-562 leukemia = test system: K-562 leukemia
KM12 colon = test system: KM12 colon
LOX IMVI melanoma = test system: LOX IMVI melanoma
M14 melanoma = test system: M14 melanoma
MALME-3M melanoma = test system: MALME-3M melanoma
MCF7 breast = test system: MCF7 breast
MDA-MB-435 = test system: MDA-MB-435
MDA-N = test system: MDA-N
MOLT-4 leukemia = test system: MOLT-4 leukemia
NCI-H226 lung = test system: NCI-H226 lung
NCI-H23 lung = test system: NCI-H23 lung
NCI-H460 lung = test system: NCI-H460 lung
NCI-H522 lung = test system: NCI-H522 lung
NCI/ADR-RES ovarian = test system: NCI/ADR-RES ovarian
OVCAR-3 ovarian = test system: OVCAR-3 ovarian
OVCAR-4 ovarian = test system: OVCAR-4 ovarian
OVCAR-5 ovarian = test system: OVCAR-5 ovarian
OVCAR-8 ovarian = test system: OVCAR-8 ovarian
PC-3 prostate = test system: PC-3 prostate
RPMI-8226 leukemia = test system: RPMI-8226 leukemia
RXF 393 renal = test system: RXF 393 renal
SF-268 CNS = test system: SF-268 CNS
SF-295 CNS = test system: SF-295 CNS
SF-539 CNS = test system: SF-539 CNS
SK-MEL-2 melanoma = test system: SK-MEL-2 melanoma
SK-MEL-28 melanoma = test system: SK-MEL-28 melanoma
SK-MEL-5 melanoma = test system: SK-MEL-5 melanoma
SN12C renal = test system: SN12C renal
SNB-19 CNS = test system: SNB-19 CNS
SNB-75 CNS = test system: SNB-75 CNS
SR leukemia = test system: SR leukemia
SW-620 colon = test system: SW-620 colon
T-47D breast = test system: T-47D breast
TK-10 renal = test system: TK-10 renal
U251 CNS = test system: U251 CNS
UACC-257 melanoma = test system: UACC-257 melanoma
UACC-62 melanoma = test system: UACC-62 melanoma
UO-31 renal = test system: UO-31 renal
MDA-MB-231 breast = test system: MDA-MB-231 breast
SK-OV-3 ovarian = test system: SK-OV-3 ovarian

Compound: Cc1cc2c(cc1C)C(=O)/C(=C/c1ccccc1C(=O)O)C2
- TGI (786-0 renal): > 100 µM
- TGI (A498 renal): 88.6 µM
- TGI (A549 NSCLC): > 100 µM
- TGI (ACHN renal): > 100 µM
- TGI (BT-549 breast): > 100 µM
- TGI (CAKI-1 renal): > 100 µM
- TGI (CCRF-CEM leukemia): > 100 µM
- TGI (COLO 205 colon): 36.3 µM
- TGI (DU-145 prostate): > 100 µM
- TGI (EKVX NSCLC): > 100 µM
- TGI (HCC-2998 colon): > 100 µM
- TGI (HCT-116 colon): > 100 µM
- TGI (HCT-15 colon): > 100 µM
- TGI (HL-60(TB) leukemia): > 100 µM
- TGI (HOP-62 NSCLC): > 100 µM
- TGI (HOP-92 NSCLC): > 100 µM
- TGI (HS 578T breast): > 100 µM
- TGI (HT29 colon): > 100 µM
- TGI (IGROV1 ovarian): > 100 µM
- TGI (K-562 leukemia): > 100 µM
- TGI (KM12 colon): > 100 µM
- TGI (LOX IMVI melanoma): 83.5 µM
- TGI (M14 melanoma): > 100 µM
- TGI (MALME-3M melanoma): > 100 µM
- TGI (MCF7 breast): > 100 µM
- TGI (MDA-MB-435): > 100 µM
- TGI (MDA-N): > 100 µM
- TGI (MOLT-4 leukemia): > 100 µM
- TGI (NCI-H226 lung): 57.8 µM
- TGI (NCI-H23 lung): 66.7 µM
- TGI (NCI-H460 lung): > 100 µM
- TGI (NCI-H522 lung): > 100 µM
- TGI (NCI/ADR-RES ovarian): > 100 µM
- TGI (OVCAR-3 ovarian): > 100 µM
- TGI (OVCAR-4 ovarian): > 100 µM
- TGI (OVCAR-5 ovarian): 68.9 µM
- TGI (OVCAR-8 ovarian): > 100 µM
- TGI (PC-3 prostate): > 100 µM
- TGI (RPMI-8226 leukemia): 75.2 µM
- TGI (RXF 393 renal): > 100 µM
- TGI (SF-268 CNS): > 100 µM
- TGI (SF-295 CNS): > 100 µM
- TGI (SF-539 CNS): 39.6 µM
- TGI (SK-MEL-2 melanoma): > 100 µM
- TGI (SK-MEL-28 melanoma): > 100 µM
- TGI (SK-MEL-5 melanoma): > 100 µM
- TGI (SN12C renal): > 100 µM
- TGI (SNB-19 CNS): > 100 µM
- TGI (SNB-75 CNS): > 100 µM
- TGI (SR leukemia): 62.7 µM
- TGI (SW-620 colon): > 100 µM
- TGI (T-47D breast): > 100 µM
- TGI (TK-10 renal): > 100 µM
- TGI (U251 CNS): 68.8 µM
- TGI (UACC-257 melanoma): > 100 µM
- TGI (UACC-62 melanoma): > 100 µM
- TGI (UO-31 renal): > 100 µM

Compound: O=C(Nc1ncc([N+](=O)[O-])s1)c1ccccc1O
- TGI (786-0 renal): > 100 µM
- TGI (A498 renal): > 100 µM
- TGI (A549 NSCLC): > 87.4 µM
- TGI (ACHN renal): > 84.5 µM
- TGI (BT-549 breast): 79.2 µM
- TGI (CAKI-1 renal): > 100 µM
- TGI (COLO 205 colon): 36.1 µM
- TGI (DU-145 prostate): > 89.4 µM
- TGI (EKVX NSCLC): > 92.2 µM
- TGI (HCC-2998 colon): > 100 µM
- TGI (HCT-116 colon): 46.4 µM
- TGI (HCT-15 colon): > 86.9 µM
- TGI (HOP-62 NSCLC): > 59.6 µM
- TGI (HOP-92 NSCLC): 7.98 µM
- TGI (HS 578T breast): 32.5 µM
- TGI (HT29 colon): > 76.2 µM
- TGI (IGROV1 ovarian): > 100 µM
- TGI (K-562 leukemia): > 100 µM
- TGI (KM12 colon): 68.7 µM
- TGI (LOX IMVI melanoma): > 100 µM
- TGI (M14 melanoma): 79.7 µM
- TGI (MALME-3M melanoma): 77.2 µM
- TGI (MCF7 breast): > 100 µM
- TGI (MDA-MB-231 breast): > 77.5 µM
- TGI (MDA-MB-435): 66.7 µM
- TGI (MDA-N): 99.4 µM
- TGI (MOLT-4 leukemia): > 100 µM
- TGI (NCI-H226 lung): 27.1 µM
- TGI (NCI-H23 lung): > 70.5 µM
- TGI (NCI-H460 lung): > 100 µM
- TGI (NCI-H522 lung): 28.3 µM
- TGI (NCI/ADR-RES ovarian): > 82.4 µM
- TGI (OVCAR-3 ovarian): > 42.4 µM
- TGI (OVCAR-4 ovarian): > 100 µM
- TGI (OVCAR-5 ovarian): > 100 µM
- TGI (OVCAR-8 ovarian): > 100 µM
- TGI (PC-3 prostate): > 94.7 µM
- TGI (RPMI-8226 leukemia): 55 µM
- TGI (RXF 393 renal): 23.6 µM
- TGI (SF-268 CNS): > 75.1 µM
- TGI (SF-295 CNS): 46.5 µM
- TGI (SF-539 CNS): > 100 µM
- TGI (SK-MEL-2 melanoma): 35.6 µM
- TGI (SK-MEL-28 melanoma): > 100 µM
- TGI (SK-MEL-5 melanoma): 37.5 µM
- TGI (SK-OV-3 ovarian): > 100 µM
- TGI (SN12C renal): 77.7 µM
- TGI (SNB-19 CNS): > 100 µM
- TGI (SNB-75 CNS): > 70.8 µM
- TGI (SW-620 colon): > 100 µM
- TGI (T-47D breast): 64 µM
- TGI (TK-10 renal): > 100 µM
- TGI (U251 CNS): > 100 µM
- TGI (UACC-257 melanoma): 98.4 µM
- TGI (UACC-62 melanoma): 41.7 µM
- TGI (UO-31 renal): 98.1 µM
